# Assay results: patent publication US11904052B2, “Methods for ameliorating infusion reactions” (ARBUTUS BIOPHARMA CORPORATION, priority 2016, dated 2024)
# Entries after “also recorded” stand apart in the source; their conditions may differ.
# Key:
# thromboxane B2 = experiment: Plasma thromboxane B2 after LNP2 infusion in the conscious minipig; format: in vivo, Gottingen minipigs; conditions: iv bolus 10 minutes prior to LNP2 infusion; ketorolac 1 mg/kg, dexamethasone 0.3 mg/kg
# From the text: (§1) Four (4) treatment naïve female Gottingen minipigs (Marshall Farms, N.Y.) were surgically implanted with a D70-PCT PhysioTel implantable radiotelemetry transmitter (Data Sciences International, St. Paul, Minn.) to allow for the measurement of physical activity, body temperature, ECG, heart rate, and arterial blood pressure. The pigs were allowed to recover from surgery for at least 7 days prior to use in the study.
# (§2) Following surgical recovery, the same four pigs (15-20 kg) received a 60-minute intravenous infusion of vehicle (0.9% saline), LNP2, LNP2+ketorolac, or LNP2+dexamethasone as outlined in the Table 1. Each treatment cohort was separated by a 7-day washout period.
# (§3) Just prior to each infusion and at approximately 1, 3, 6 and 24 hours after the start of each infusion, a mixed venous blood sample was taken, processed to plasma, stored frozen, and used for subsequent analysis of thromboxane B2 (11-dehydrothromboxane B2). Heart rate and arterial blood pressure was continuously recorded from 30 minutes prior to each infusion to 24 hours after the start of each infusion.
# conscious minipig = experiment: Mean arterial blood pressure by radiotelemetry after LNP2 infusion in the conscious minipig; format: in vivo, Gottingen minipigs; conditions: iv bolus 10 minutes prior to LNP2 infusion; ketorolac 1 mg/kg, dexamethasone 0.3 mg/kg
# From the text: as §1, §2, §3
smiles,measurement,setting,value
O=C(c1ccccc1)c1ccc2n1CCC2C(=O)O (stereo not drawn) [ketorolac],effect on the LNP2-induced increase in thromboxane B2,thromboxane B2,mitigated completely
same,effect on the acute infusion reaction to LNP2 (increase in blood pressure),conscious minipig,completely prevented
same,effect on the delayed hypotension after LNP2 infusion,conscious minipig,prevented; also recorded: effectively mitigated
